The values that follow come from PubChem BioAssay (NCI).

Holding throughout (experiment): DTP human tumour cell line panel, 48 h
In assay [1] the test system is NCI/ADR-RES ovarian.
Assay [2] relates to KM12 colon.
The subject of assay [3] is OVCAR-8 ovarian.
Assay [4] has as its system OVCAR-5 ovarian.
The subject of assay [5] is UACC-257 melanoma.
Assay [6] deals with CAKI-1 renal.
Assay [7] concerns OVCAR-3 ovarian.
The test system of assay [8] is SNB-19 CNS.
The test system of assay [9] is M14 melanoma.
Assay [10] has as its system A498 renal.
The subject of assay [11] is HCC-2998 colon.
For assay [12], the system named is HCT-15 colon.
Assay [13] deals with U251 CNS.
The test system of assay [14] is ACHN renal.
For assay [15], the system named is NCI-H226 lung.
The test system of assay [16] is RPMI-8226 leukemia.
Assay [17] has as its system MCF7 breast.
For assay [18], the system named is OVCAR-4 ovarian.
The subject of assay [19] is SF-268 CNS.
The subject of assay [20] is SW-620 colon.

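Following 48 hours of exposure in 96-well plates, responses at five concentrations were used to interpolate endpoints linearly. At the TGI there is no net growth.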

What is called TGI is the concentration giving total growth inhibition. Read a high TGI as lower sensitivity of the cells. As for `O=c1c2cc(Cl)ccc2[nH]c2cc(O)cc(O)c12`, the TGI in assay [1], in [2], in assay [3], in assay [4], in assay [5] and in assay [6] was > 10 µM in each case. For the same compound, the TGI in assay [7], in assay [8], in assay [9], in assay [10], in assay [11] and in assay [12] was > 10 µM each time. The TGI in assay [13], in assay [14], in [15], in [16], in [17] and in assay [18] was > 10 µM in each case. The TGI in assay [19] and in assay [20] was > 10 µM each time.

Consider `Oc1cccc2cc(Br)cnc12`, for which the TGI was 20.6 µM in assay [1]; > 100 µM in assay [2]; > 100 µM in assay [3]; > 100 µM in [4]; 27.3 µM in assay [5]; > 100 µM in assay [6]. The TGI was > 26.3 µM in assay [7]; > 100 µM in assay [8]; 51.8 µM in [9]; > 85 µM in assay [10]; 96.9 µM in assay [11]; > 100 µM in assay [12]. In addition, the TGI in assay [13] is > 100 µM; in assay [14], > 69.2 µM; in assay [15] it was > 100 µM; in assay [16], > 31.4 µM; in assay [17], > 100 µM; in [18], > 30.4 µM. The figures for the TGI in [19] and in assay [20] were > 33.9 µM and > 100 µM, respectively.

`CC1Cc2cc(O)c(O)cc2-c2cc(O)c(O)cc2CC1C` (stereo not given): the TGI in assay [1] stood at 38.4 µM; in assay [2] it was 14 µM; in [3] it was 53.3 µM; in assay [4] it was 45.6 µM; in assay [5], 29.1 µM; in assay [6], 48.3 µM. The TGI in [7] was 29.3 µM; in [8], 96.2 µM; in assay [9] it was 29.7 µM; in assay [10], 56.8 µM; in assay [11], 43.1 µM; in [12], 36.1 µM. Also, the TGI in assay [13] is 32.6 µM; in assay [14], 87.1 µM; in assay [15], 67.8 µM; in [16] it was > 100 µM; in assay [17], 37.1 µM; in [18], 33.9 µM. Also, the TGI in [19] is > 100 µM; in [20], 42.5 µM.

Regarding `C=C1C(=O)OC2CC(=C)C3CC=C(C)C3CC12` (stereo not given), the TGI in assay [1] was > 100 µM; in assay [2] it was > 100 µM; in [3] it was > 100 µM; in [4], > 100 µM; in assay [5], 27.5 µM; in assay [6], 28.2 µM. Moreover, the TGI was 91.9 µM in assay [7]; 54.5 µM in assay [8]; 40.9 µM in assay [9]; > 100 µM in assay [10]; 43.3 µM in assay [11]; 36.7 µM in [12]. Besides, the TGI was 29.6 µM in assay [13]; 47.8 µM in [14]; 43 µM in assay [15]; > 100 µM in assay [16]; 55.3 µM in [17]; > 100 µM in [18]. The results for the TGI in [19] and in assay [20] were > 100 µM and 32.4 µM, respectively.

Regarding `CN1C=Cc2nccc3cc4c(c1c23)OCO4`, the TGI in assay [1] is 52.6 µM; in assay [2] it was 17.6 µM; in assay [3], > 100 µM; in [4] it was 66.3 µM; in assay [5], 16.9 µM; in assay [6], 5.77 µM. For the same compound, the TGI was > 72.4 µM in assay [7]; 41 µM in assay [8]; 11.7 µM in assay [9]; 20.5 µM in assay [10]; 30.4 µM in [11]; > 66.3 µM in assay [12]. Besides, the TGI in assay [13] is 32.4 µM; in assay [14], 19.3 µM; in [15] it was 43.5 µM; in assay [16] it was 30.7 µM; in [17], > 23.6 µM; in [18] it was 47.5 µM. Besides, the figures for the TGI in assay [19] and in assay [20] were 11.3 µM and > 100 µM, respectively.

On to `CCOC(=O)c1c(-c2ccc(Br)cc2)ccn1C`, for which the TGI in assay [1], in [2], in assay [3], in assay [4], in [5] and in [6] was > 10 µM each time. The TGI in assay [7], in assay [8], in [9], in assay [10], in assay [11] and in assay [12] was > 10 µM throughout. The TGI in assay [13], in assay [14], in assay [15], in assay [16], in assay [17] and in assay [18] was > 10 µM throughout. In addition, the TGI in assay [19] and in assay [20] was > 10 µM each time.

`CC(=O)c1cccc(NC(=O)C(=O)C(c2cnc3ccc([N+](=O)[O-])cc3n2)[N+](=O)[O-])c1` (stereo not given): the TGI in assay [1], in [2], in [3], in assay [4], in [5] and in assay [6] was > 100 µM in each case. In addition, the TGI in assay [7], in [8], in assay [9], in assay [10], in [11] and in assay [12] was > 100 µM in each case. The TGI in [13], in assay [14], in assay [15], in [16], in assay [17] and in assay [18] was > 100 µM in each case. Further, the TGI in assay [19] and in assay [20] was > 100 µM in each case.
